# Organism: Rattus norvegicus
# Assay: Open TG-GATES - Regimen: Daily Repeat
# Assay type: toxicity, organism-based, Sprague-Dawley
# Design: regimen Daily Repeat, gender Male, age 6 weeks
# Details: in vivo, po, route gavage; for APTT / Bas / Eos / Fbg / Hb / Ht / Lym / MCH / MCHC / MCV / Mono / Neu / PT / Plat / RBC / Ret / WBC: tissue Blood; for KIDNEY_L / KIDNEY_R / KIDNEY_TOTAL: tissue Kidney; for LIVER: tissue Liver; for ALP / ALT / AST / BUN / CRE / Ca / DBIL / GLC / IP / K / LDH / Na / PL / RALB / TBIL / TC / TG / TP / gamma-GTP: tissue Plasma
# [1] = 0 mg/kg, 72 h, dose level Control, time 3 day
# [2] = 0 mg/kg, […], dose level Control, time 7 day
# [3] = 0 mg/kg, […], dose level Control, time 14 day
# [4] = 0 mg/kg, […], dose level Control, time 28 day
# [5] = 15 mg/kg, 72 h, dose level Low, time 3 day
# [6] = 15 mg/kg, […], dose level Low, time 7 day
# [7] = 15 mg/kg, […], dose level Low, time 14 day
# [8] = 15 mg/kg, […], dose level Low, time 28 day
compound,measurement,setting,value
Oc1ncnc2[nH]ncc12 [ALLOPURINOL],TERMINAL_BW,[1],244.3 g
same,APTT,[1],16.6 s
same,Bas,[1],0%
same,Eos,[1],0.8%
same,Fbg,[1],237 mg/dL
same,Hb,[1],13.9 g/dL
same,Ht,[1],41.5%
same,Lym,[1],74.6%
same,MCH,[1],22.3 pg
same,MCHC,[1],33.3%
same,MCV,[1],66.7 fL
same,Mono,[1],11.6%
same,Neu,[1],12.8%
same,PT,[1],11.9 s
same,Plat,[1],93.5 x10_4/uL
same,RBC,[1],623.2 x10_4/ul
same,Ret,[1],7.7%
same,WBC,[1],127.2 x10_2/uL
same,KIDNEY_L,[1],1 g
same,KIDNEY_R,[1],1 g
same,KIDNEY_TOTAL,[1],2.1 g
same,LIVER,[1],12.2 g
same,ALP,[1],863.2 IU/L
same,ALT,[1],34.2 IU/L
same,AST,[1],58.2 IU/L
same,BUN,[1],18.2 mg/dL
same,CRE,[1],0.5 mg/dL
same,Ca,[1],11.4 mg/dL
same,DBIL,[1],0 mg/dL
same,GLC,[1],201.6 mg/dL
same,IP,[1],8.1 mg/dL
same,K,[1],4.9 meq/L
same,LDH,[1],84.6 IU/L
same,Na,[1],137.8 meq/L
same,PL,[1],174.6 mg/dL
same,RALB,[1],3.9 g/dL
same,TBIL,[1],0.2 mg/dL
same,TC,[1],87.8 mg/dL
same,TG,[1],130 mg/dL
same,TP,[1],6 g/dL
same,gamma-GTP,[1],1.2 IU/L
same,TERMINAL_BW,[2],249.8 g
same,TERMINAL_BW,[3],318.9 g
same,TERMINAL_BW,[4],401.4 g
same,APTT,[2],17.2 s
same,Bas,[2],0%
same,Eos,[2],1%
same,Fbg,[2],242.2 mg/dL
same,Hb,[2],15 g/dL
same,Ht,[2],45.2%
same,Lym,[2],77.8%
same,MCH,[2],20.4 pg
same,MCHC,[2],33.2%
same,MCV,[2],61.4 fL
same,Mono,[2],4.8%
same,Neu,[2],16.8%
same,PT,[2],12 s
same,Plat,[2],118.1 x10_4/uL
same,RBC,[2],737.4 x10_4/ul
same,Ret,[2],4.5%
same,APTT,[3],16.9 s
same,Bas,[3],0%
same,Eos,[3],1%
same,Fbg,[3],227 mg/dL
same,Hb,[3],14.5 g/dL
same,Ht,[3],44%
same,Lym,[3],76.4%
same,MCH,[3],19.9 pg
same,MCHC,[3],33%
same,MCV,[3],60.5 fL
same,Mono,[3],6%
same,Neu,[3],16.8%
same,PT,[3],11.9 s
same,Plat,[3],97.7 x10_4/uL
same,RBC,[3],728 x10_4/ul
same,Ret,[3],3.7%
same,APTT,[4],16.3 s
same,Bas,[4],0%
same,Eos,[4],1%
same,Fbg,[4],230.6 mg/dL
same,Hb,[4],14.8 g/dL
same,Ht,[4],44.2%
same,Lym,[4],80.8%
same,MCH,[4],19.3 pg
same,MCHC,[4],33.5%
same,MCV,[4],57.6 fL
same,Mono,[4],6.2%
same,Neu,[4],11.8%
same,PT,[4],12.3 s
same,Plat,[4],109.3 x10_4/uL
same,RBC,[4],766.8 x10_4/ul
same,Ret,[4],3.5%
same,WBC,[4],163 x10_2/uL
same,KIDNEY_L,[2],1.1 g
same,KIDNEY_R,[2],1.1 g
same,KIDNEY_TOTAL,[2],2.1 g
same,KIDNEY_L,[3],1.2 g
same,KIDNEY_R,[3],1.2 g
same,KIDNEY_TOTAL,[3],2.5 g
same,KIDNEY_L,[4],1.4 g
same,KIDNEY_R,[4],1.4 g
same,KIDNEY_TOTAL,[4],2.8 g
same,LIVER,[3],14.3 g
same,LIVER,[4],16.2 g
same,ALP,[2],874.8 IU/L
same,ALT,[2],26 IU/L
same,AST,[2],56.2 IU/L
same,BUN,[2],22.4 mg/dL
same,CRE,[2],0.5 mg/dL
same,DBIL,[2],0.06 mg/dL
same,GLC,[2],203 mg/dL
same,IP,[2],7.7 mg/dL
same,K,[2],4.6 meq/L
same,LDH,[2],86.2 IU/L
same,Na,[2],136.6 meq/L
same,PL,[2],135.4 mg/dL
same,RALB,[2],4 g/dL
same,TBIL,[2],0.3 mg/dL
same,TC,[2],68.2 mg/dL
same,TG,[2],60.4 mg/dL
same,TP,[2],6.2 g/dL
same,gamma-GTP,[2],1.2 IU/L
same,ALP,[3],710.4 IU/L
same,ALT,[3],32 IU/L
same,AST,[3],62.8 IU/L
same,BUN,[3],17.8 mg/dL
same,CRE,[3],0.6 mg/dL
same,Ca,[3],10.9 mg/dL
same,DBIL,[3],0.01 mg/dL
same,GLC,[3],206.4 mg/dL
same,IP,[3],7.9 mg/dL
same,K,[3],4.3 meq/L
same,LDH,[3],69.8 IU/L
same,Na,[3],139.8 meq/L
same,PL,[3],150 mg/dL
same,RALB,[3],3.6 g/dL
same,TBIL,[3],0.3 mg/dL
same,TC,[3],70 mg/dL
same,TG,[3],118 mg/dL
same,TP,[3],6 g/dL
same,gamma-GTP,[3],1.6 IU/L
same,ALP,[4],602.4 IU/L
same,ALT,[4],31.6 IU/L
same,AST,[4],61.8 IU/L
same,BUN,[4],20 mg/dL
same,CRE,[4],0.4 mg/dL
same,DBIL,[4],0.018 mg/dL
same,GLC,[4],186 mg/dL
same,IP,[4],6.5 mg/dL
same,K,[4],4.7 meq/L
same,LDH,[4],81 IU/L
same,Na,[4],138.8 meq/L
same,PL,[4],146.2 mg/dL
same,RALB,[4],3.8 g/dL
same,TBIL,[4],0.3 mg/dL
same,TC,[4],67.2 mg/dL
same,TG,[4],147.4 mg/dL
same,TP,[4],6.2 g/dL
same,gamma-GTP,[4],1.4 IU/L
same,TERMINAL_BW,[5],242.3 g
same,APTT,[5],16.5 s
same,Bas,[5],0%
same,Eos,[5],0.8%
same,Fbg,[5],229.2 mg/dL
same,Hb,[5],13.9 g/dL
same,Ht,[5],41.8%
same,Lym,[5],81.2%
same,MCH,[5],21.5 pg
same,MCHC,[5],33.3%
same,MCV,[5],64.8 fL
same,Mono,[5],6%
same,Neu,[5],11.4%
same,PT,[5],12.1 s
same,Plat,[5],91.2 x10_4/uL
same,RBC,[5],646.4 x10_4/ul
same,Ret,[5],7%
same,WBC,[5],93.9 x10_2/uL
same,KIDNEY_L,[5],1 g
same,KIDNEY_R,[5],1 g
same,KIDNEY_TOTAL,[5],2.1 g
same,LIVER,[5],11.7 g
same,ALT,[5],33.4 IU/L
same,AST,[5],67.4 IU/L
same,BUN,[5],18.4 mg/dL
same,CRE,[5],0.5 mg/dL
same,Ca,[5],11.3 mg/dL
same,DBIL,[5],0.002 mg/dL
same,GLC,[5],193 mg/dL
same,IP,[5],8.4 mg/dL
same,K,[5],4.8 meq/L
same,LDH,[5],85.2 IU/L
same,Na,[5],139.2 meq/L
same,PL,[5],162.4 mg/dL
same,RALB,[5],3.9 g/dL
same,TBIL,[5],0.3 mg/dL
same,TC,[5],81.4 mg/dL
same,TG,[5],111 mg/dL
same,TP,[5],6.1 g/dL
same,gamma-GTP,[5],1.6 IU/L
same,TERMINAL_BW,[6],256.8 g
same,TERMINAL_BW,[7],323.2 g
same,TERMINAL_BW,[8],383.9 g
same,APTT,[6],16.7 s
same,Bas,[6],0%
same,Eos,[6],1%
same,Fbg,[6],246.6 mg/dL
same,Hb,[6],14.8 g/dL
same,Ht,[6],44.6%
same,Lym,[6],83.2%
same,MCH,[6],21.1 pg
same,MCHC,[6],33.2%
same,MCV,[6],63.5 fL
same,Mono,[6],3.4%
same,Neu,[6],12.6%
same,PT,[6],11.8 s
same,Plat,[6],112.6 x10_4/uL
same,RBC,[6],702.2 x10_4/ul
same,Ret,[6],4.6%
same,WBC,[6],108.6 x10_2/uL
same,APTT,[7],16.8 s
same,Bas,[7],0%
same,Eos,[7],0.8%
same,Fbg,[7],242.8 mg/dL
same,Hb,[7],14.6 g/dL
same,Ht,[7],44%
same,Lym,[7],81%
same,MCH,[7],20.5 pg
same,MCHC,[7],33.2%
same,MCV,[7],61.7 fL
same,Mono,[7],4.8%
same,Neu,[7],13.4%
same,PT,[7],11.7 s
same,Plat,[7],111.9 x10_4/uL
same,RBC,[7],714 x10_4/ul
same,Ret,[7],4.4%
same,APTT,[8],16.6 s
same,Bas,[8],0%
same,Eos,[8],1%
same,Fbg,[8],225.8 mg/dL
same,Hb,[8],15.4 g/dL
same,Ht,[8],46%
same,Lym,[8],83.8%
same,MCH,[8],19.4 pg
same,MCHC,[8],33.6%
same,MCV,[8],57.8 fL
same,Mono,[8],2.8%
same,Neu,[8],12.4%
same,PT,[8],12.1 s
same,RBC,[8],795.8 x10_4/ul
same,Ret,[8],2.4%
same,WBC,[8],167 x10_2/uL
same,KIDNEY_L,[6],1.2 g
same,KIDNEY_R,[6],1.2 g
same,KIDNEY_TOTAL,[6],2.3 g
same,KIDNEY_L,[7],1.3 g
same,KIDNEY_R,[7],1.3 g
same,KIDNEY_TOTAL,[7],2.6 g
same,KIDNEY_L,[8],1.4 g
same,KIDNEY_R,[8],1.4 g
same,KIDNEY_TOTAL,[8],2.9 g
same,LIVER,[6],11.7 g
same,LIVER,[7],15.3 g
same,LIVER,[8],16.6 g
same,ALP,[6],753 IU/L
same,ALT,[6],25.2 IU/L
same,AST,[6],56.6 IU/L
same,BUN,[6],21.6 mg/dL
same,CRE,[6],0.6 mg/dL
same,Ca,[6],11.3 mg/dL
same,DBIL,[6],0.012 mg/dL
same,GLC,[6],192.6 mg/dL
same,IP,[6],8.6 mg/dL
same,K,[6],4.5 meq/L
same,Na,[6],137.8 meq/L
same,PL,[6],156 mg/dL
same,RALB,[6],4.2 g/dL
same,TBIL,[6],0.3 mg/dL
same,TC,[6],81.2 mg/dL
same,TG,[6],85.2 mg/dL
same,TP,[6],6.2 g/dL
same,gamma-GTP,[6],2.4 IU/L
same,ALP,[7],823.2 IU/L
same,ALT,[7],27.2 IU/L
same,AST,[7],56.8 IU/L
same,BUN,[7],19.4 mg/dL
same,CRE,[7],0.6 mg/dL
same,DBIL,[7],0 mg/dL
same,GLC,[7],185.4 mg/dL
same,IP,[7],7.5 mg/dL
same,K,[7],4.4 meq/L
same,LDH,[7],74.8 IU/L
same,Na,[7],138.8 meq/L
same,PL,[7],158.6 mg/dL
same,RALB,[7],3.9 g/dL
same,TBIL,[7],0.2 mg/dL
same,TC,[7],69.8 mg/dL
same,TG,[7],161.6 mg/dL
same,TP,[7],6.2 g/dL
same,gamma-GTP,[7],2 IU/L
same,ALP,[8],525.8 IU/L
same,ALT,[8],29.4 IU/L
same,AST,[8],59.2 IU/L
same,BUN,[8],20.6 mg/dL
same,CRE,[8],0.6 mg/dL
same,Ca,[8],11 mg/dL
same,DBIL,[8],0.014 mg/dL
same,GLC,[8],188.4 mg/dL
same,IP,[8],6.9 mg/dL
same,K,[8],4.8 meq/L
same,LDH,[8],74.4 IU/L
same,Na,[8],139.6 meq/L
same,PL,[8],153.4 mg/dL
same,RALB,[8],4.1 g/dL
same,TBIL,[8],0.3 mg/dL
same,TC,[8],70 mg/dL
same,TG,[8],160.6 mg/dL
same,TP,[8],6.6 g/dL
same,gamma-GTP,[8],2.8 IU/L
same,TERMINAL_BW,"50 mg/kg, 72 h, dose level Middle, time 3 day",239.5 g
